Source: patent publication US12655189B2, “DOTA binding chimeric antigen receptor for cellular therapy” (THE TRUSTEES OF THE UNIVERSITY OF PENNSYLVANIA, priority 2019, dated 2026)

Columns and labels:
antigen positive cells = test: Target-cell lysis with DOTA-conjugated targeting ligands: linker/metal tuning and blocking (FIGS. 3E, 6B, 9); type: cell-based; conditions: 6 nM DOTA-NHS blocking
Method: To investigate the ability of DOTA-linked antibodies to trigger effector function in CAR T cells, CAR T cells were incubated with varying amounts of the Her2-specific Herceptin-conjugated DOTA antibody for 16 hours (FIG. 3D). Following this incubation, the supernatant was collected and IFNγ production was measured.
Herceptin antibodies were conjugated to DOTA, various metal ions were chelated, and the ability of DOTA CAR T cells to kill their targets was evaluated.

hC8.2.5 DOTA CAR T cells = test: IFNγ secretion (ELISA) in response to immobilized DOTA or Y-DOTA; type: cell-based, human; conditions: immobilized ligand
Method: FIGS. 3A-3H illustrate Anti-DOTA Universal Immune Receptor binding and redirected killing. […] DOTA-NHS or Y-DOTA-Sarcosine-Biotin were incubated at various concentrations in a 96-well plate and allowed to passively adhere overnight at 4° C. Plates were washed 2× with PBS and 50,000 immune receptor expressing T cells were added to each well. Plates were incubated at 37° C. and 5% CO2 for 16 hours. Supernatants were harvested and analyzed for IFNγ secretion using a standard IFNγ ELISA kit. […] The average number of DOTA's per antibody was determined using the difference in mass between labeled and unlabeled antibody; in this example there are ˜9.3 DOTAs per antibody.

CD20+ cells = test: Lysis of CD20+ cells by DOTA CAR; type: cell-based; conditions: SKOV3 cells as antigen negative control
[1] = system: Ramos (CD20+/EGFR−) cells; test: Luciferase lysis assay, Ramos; type: cell-based; conditions: 16 hours, 2.5:1 E:T, average of 1 DOTA per antibody
Method: Cetuximab and Rituximab were conjugated to Bn-DOTA to create targeting ligands with an average of 1 DOTA molecule per antibody, confirmed by MALDI TOF. MDA468 (CD20-/EGFR+) cells and Ramos (CD20+/EGFR−) cells expressing fLuc were incubated for 16 hours with DOTA CAR T cells at a 2.5:1 E:T ratio and targeting ligands at a range of concentrations. Each condition was run in triplicate. Luminescence was measured after co-culture and used to calculate lysis.

untransduced SKOV3 cells = test: Cell uptake of radiolabeled probes, untransduced control cells; type: cell-based
Method: (§1) [^90Y]DOTA-Bn-NH2 and [^90Y]AABD (FIG. 14) were synthesized by incubating 0.6 mCi of Y-90 with DOTA-Bn-NH2 or AABD at 80° C. for 30 min. The radiochemical purity of [^90Y]DOTA-Bn-NH2 and [^90Y]AABD was >95% as analyzed by ITLC (instant thin-layer chromatography). Cell uptake studies were performed with SKOV3 cells transduced with the DOTA CAR, with untransduced SKOV3 cells as a control; excess Y-DOTA-Bn-NH2 (250 nM) was used as a blocking agent.
(§2) Rituxumab-Bn-DOTA-Y was radiolabeled with 1-125 using Pierce Pre-Coated Iodination Tubes. The radiochemical purity of [^125I]Rituximab-Bn-DOTA-Y was >99% based on ITLC (instant thin-layer chromatography). Cell uptake studies with [^125I]Rituximab-Bn-DOTA-Y were performed with SKOV3 cells that were transduced with the DOTA CAR, with untransduced SKOV3 cells as a control. […] This experiment confirmed that Y-DOTA labeled antibodies are capable of binding to cells that express the DOTA CAR, with minimal nonspecific binding.

[2] = system: SKOV3 cells transduced with the DOTA CAR; test: Cell uptake of radiolabeled probes, DOTA CAR transduced cells; type: cell-based
Method: FIG. 19 is a histogram illustrating [[…]]DOTA-Bn-NH2 and [^90Y]AABD uptake in SKOV3 cells transduced with the DOTA CAR.
FIG. 20 is a graph illustrating [[…]]Rituximab-Bn-DOTA-Y uptake in SKOV3 cells transduced with the DOTA CAR. The cells bind to [^125I]Rituximab-Bn-DOTA-Y rapidly, with maximum uptake at 60 min.
as §1, §2

O=C(O)CN1CCN(CC(=O)O)CCN(CC(=O)ON2C(=O)CCC2=O)CCN(CC(=O)O)CC1 [DOTA-NHS]
effect of free monomeric DOTA on lytic function of Herceptin-NHS-DOTA-Y-CAR T cells (antigen positive cells): blockade of lytic function
concentration at which the IFNγ effect was saturating (hC8.2.5 DOTA CAR T cells): 100 µM
IFNγ production by hC8.2.5 DOTA CAR T cells (hC8.2.5 DOTA CAR T cells; 16 hours): low levels of IFNγ

Rituximab-Bn-DOTA-Y: Rituximab-Bn-DOTA with chelated yttrium
lysis of CD20+ cells (CD20+ cells): capable of lysing CD20+ cells

Rituximab-Bn-DOTA: Rituximab conjugated to Bn-DOTA
lysis of CD20+ cells (CD20+ cells): specifically lysed
lysis of Ramos cells [1]: able to specifically lyse their respective target cell lines

[^125I]Rituximab-Bn-DOTA-Y: Rituximab-Bn-DOTA-Y radiolabeled with I-125
cell uptake in untransduced cells (untransduced SKOV3 cells): minimal to no uptake
time of maximum uptake [2]: 60 min
cell uptake ([2]; at 60 min): 65 % input/10^6 cells
